Test results as given in US7722901B2, “Uses for the extract of a plant of the family Asclepiadaceae” (Cognis IP Management GmbH, priority 2004, dated 2010).

Tested on: human hair follicles
Assay: In vitro culture of human hair follicles (hair growth inhibition)
Assay type: cell-based
Conditions: 50 follicles from 5 donors
Description: The hair follicles were incubated for 7 days at 37° C. under an atmosphere of air that was enriched with carbon dioxide (5 vol.-%). The length of hair follicles was monitored before being cultured, after 3 days of culture and after 7 days of culture. […] The test was done on hair follicles coming from 3-5 different donors. For each donor 10 follicles were cultured for each set of conditions. The results presented in table 2 are the cumulated results of all hair follicles.

[1] = with IGF-1 (30 ng/ml), 0.001 % P/v

SMILES: C=C[C@@]1(C)CC(=O)[C@]2(O)[C@@]3(C)[C@@H](O)CCC(C)(C)[C@@H]3[C@H](O)[C@H](OC(C)=O)[C@@]2(C)O1 [Forskolin]
- increase in hair growth Day 3/Day 0 [1]: +9%
- increase in hair growth Day 7/Day 0 [1]: +17%
- increase in hair growth Day 3/Day 0 (without IGF-1, 0.001 % P/v): +8%
- increase in hair growth Day 7/Day 0 (without IGF-1, 0.001 % P/v): +15%
